Experimental data taken from patent publication US9580411B2, “Substituted sulfonamide compounds” (Hoffmann-La Roche Inc., priority 2012, dated 2017).

Each molecule was assayed against hTRPA1 (Homo sapiens (Human), UniProt O75762) (assay: Dose response calcium flux assay (FLIPR), ChanTest hTRPA1-CHO stably transfected cell line). Conditions: CHO-K1 Tet-On human TRPA1 cells, cinnamaldehyde agonist (final 100 uM).
Format: cell-based
Description: IC50 Determinations of Exemplified Compounds Dose Response Assay: Chan Test hTRPA1-CHO Stably Transfected Cell Line
CHO-K1 Tet-On_HOMSA_TRPA1_Clone_20
Chinese Hamster Ovary cells, inducible expression
• Ham's F-12 with 10% tetracycline-free FBS • 1× penicillin-streptomycin • 1× glutamax • 0.01 mg/ml Blasticidin • 0.40 mg/ml Zeocin • The cell line doubling rate was ˜15 hours. […] Experiments were run at 24 hours post induction. Plating Conditions CHOK1/TRPA1 Cells: • Harvested cells with 0.025% trypsin/EDTA. • Resuspended cells in growth media without selection antibiotics. • Measured cell density and diluted to 2.4×10^5 cells/ml in media containing 1 ug/ml Doxycycline Plate 25 ul/well into 384 well black/clear tissue culture-treated plates. • Incubated overnight at 37° C. Calcium Flux Assay: Day of Assay: Reagents: • Replacement Buffer: Hank's Balanced Salt Solution, 20 mM HEPES along with 0.005% BSA and 2× Probenecid • Dye Loading Buffer: Cal-3 NW Calcium dye was prepared by dissolving the contents of one vial with […] Hank's Balanced Salt Solution containing 20 mM HEPES. • Control compounds for CHOK1/TRPA1 cells: AP-18, stock 10 mM, prepare 3.5× compound dilution in a Compound Buffer (HBSS/20 mM HEPES/0.005% BSA)—final concentration 10 uM. • Preparation of Cinnamaldehyde (agonist addition): FW=132.16 • Specific gravity=1.046 gm/cc • 1.32 gm/1.046 gm/cc=1.26 ml of stock • Add 1.74 ml DMSO=3.3 M stock • Working solution 4.5× (final 100 uM in Compound Buffer: HBSS/20 mM HEPES/0.005% BSA) • Compounds dilutions were prepared from 5 or 10 mM stock (100% DMSO): • Adjustments of volumes and concentrations were made at time of titration to reflect desired final assay concentrations. • Compounds were tested at either 20 μM three folds dilution 11 steps out or 30 μM two folds dilution 11 steps out. • 3 μl of diluted compound were transferred into Weidmann 384-well plate in duplicates side-by-side. • Compound plates were resuspended with 100 ul of HBSS/20 mM HEPES/0.005% BSA buffer (Compound Buffer): • column 1A-H: buffer/DMSO (bk) • column 2A-H: AP-18 (control antagonist for CHOK1 TRPA1 cells) • column 1I-P: ATP (control for CHOK1 teton cells) • column 2 I-P: 2APB (control antagonist for CHOK1/TRPM8 cells). Growth media was removed from the cell plates (20 ul) and 20 ul of the Replacement Buffer was added followed by addition of 25 ul of diluted dye. All three steps were performed using a Plate Washer BioTek 407. The plates were then incubated for 30′ at RT.
After incubation, both the cell and compound plates were brought to the FLIPR and 20 ul of the diluted compounds/antagonist/bk were transferred to the cell plates by the FLIPR. Plates were then incubated for 30′ at room temperature. After 30′ incubation, plates were returned to the FLIPR and 20 ul of 4.5× Cinnamaldehyde was added to the cell plates. During the compound addition as well as agonist addition, fluorescence readings were taken simultaneously from all 384 wells of the cell plate every 1.5 seconds. Five readings were taken to establish a stable baseline, then 20 ul of sample was rapidly (30 ul/sec) and simultaneously added to each well of the cell plate. The fluorescence was continuously monitored before, during and after sample/agonist addition for a total elapsed time of 100 seconds (compound addition) and 120 seconds (agonist addition). Responses (increase in peak fluorescence) in each well following agonist addition was determined. The initial fluorescence reading from each well, prior to ligand stimulation, was used a zero baseline value for the data from that well.

Chain of hTRPA1 (O75762 whole entry): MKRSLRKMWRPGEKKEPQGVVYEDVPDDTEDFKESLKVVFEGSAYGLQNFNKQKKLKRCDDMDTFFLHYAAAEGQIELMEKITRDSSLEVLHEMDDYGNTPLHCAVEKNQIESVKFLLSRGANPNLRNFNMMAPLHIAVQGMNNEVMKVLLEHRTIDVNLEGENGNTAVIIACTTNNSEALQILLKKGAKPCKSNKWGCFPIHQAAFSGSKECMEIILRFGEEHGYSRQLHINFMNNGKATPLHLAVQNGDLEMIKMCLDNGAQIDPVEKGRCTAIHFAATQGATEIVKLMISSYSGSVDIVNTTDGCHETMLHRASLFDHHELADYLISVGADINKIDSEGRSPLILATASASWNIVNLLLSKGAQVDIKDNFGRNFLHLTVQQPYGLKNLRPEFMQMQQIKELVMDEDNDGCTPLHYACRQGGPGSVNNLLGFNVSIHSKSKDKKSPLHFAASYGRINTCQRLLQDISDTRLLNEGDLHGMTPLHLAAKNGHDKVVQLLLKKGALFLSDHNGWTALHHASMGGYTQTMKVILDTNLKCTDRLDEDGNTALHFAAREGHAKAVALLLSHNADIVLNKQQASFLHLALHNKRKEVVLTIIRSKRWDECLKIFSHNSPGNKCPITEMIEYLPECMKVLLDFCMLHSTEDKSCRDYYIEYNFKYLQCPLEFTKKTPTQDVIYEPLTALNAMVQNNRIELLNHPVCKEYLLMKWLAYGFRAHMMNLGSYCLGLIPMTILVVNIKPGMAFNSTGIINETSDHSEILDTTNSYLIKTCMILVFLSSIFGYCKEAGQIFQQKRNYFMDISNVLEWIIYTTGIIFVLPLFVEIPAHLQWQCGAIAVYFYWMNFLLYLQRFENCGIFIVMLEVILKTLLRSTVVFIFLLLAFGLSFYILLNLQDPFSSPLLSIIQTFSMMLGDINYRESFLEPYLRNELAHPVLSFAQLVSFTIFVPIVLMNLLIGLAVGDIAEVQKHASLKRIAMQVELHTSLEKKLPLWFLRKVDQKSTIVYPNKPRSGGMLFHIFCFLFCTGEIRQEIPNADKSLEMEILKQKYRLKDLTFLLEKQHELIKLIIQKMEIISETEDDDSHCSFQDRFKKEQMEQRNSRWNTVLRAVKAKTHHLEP

Row | SMILES | IC50 [nM]
1 | CN(CC(=O)NCc1cc(-c2ccc(C(F)(F)F)cc2)ncn1)S(=O)(=O)c1cccs1 [Example 26, 2-[methyl-(thiophene-2-sulfonyl)-amino]-N-[6-(4-trifluoromethyl-phenyl)-pyrimidin-4-ylmethyl]-acetamide] | 340
2 | CC(C)N(CC(=O)NCc1cc(-c2ccc(C(F)(F)F)cc2)ncn1)S(=O)(=O)c1ccc(F)cc1 [Example 27, 2-[(4-Fluoro-benzenesulfonyl)-isopropyl-amino]-N-[6-(4-trifluoromethyl-phenyl)-pyrimidin-4-ylmethyl]-acetamide] | 52
3 | CCN(CC(=O)NCc1cc(-c2ccc(C(F)(F)F)cc2)ncn1)S(=O)(=O)c1ccc(F)cc1 [Example 28, 2-[Ethyl-(4-fluoro-benzenesulfonyl)-amino]-N-[6-(4-trifluoromethyl-phenyl)-pyrimidin-4-ylmethyl]-acetamide] | 33
4 | COCCN(CC(=O)NCc1cc(-c2ccc(C(F)(F)F)cc2)ncn1)S(=O)(=O)c1ccc(F)cc1 [Example 29, 2-[(4-Fluoro-benzenesulfonyl)-(2-methoxy-ethyl)-amino]-N-[6-(4-trifluoromethyl-phenyl)-pyrimidin-4-ylmethyl]-acetamide] | 470
5 | O=C(CN(CCO)S(=O)(=O)c1ccc(F)cc1)NCc1cc(-c2ccc(C(F)(F)F)cc2)ncn1 [Example 30, 2-[(4-fluoro-benzenesulfonyl)-(2-hydroxy-ethyl)-amino]-N-[6-(4-trifluoromethyl-phenyl)-pyrimidin-4-ylmethyl]acetamide] | 220
6 | CC(C)(C)N(CC(=O)NCc1cc(-c2ccc(C(F)(F)F)cc2)ncn1)S(=O)(=O)c1ccc(F)cc1 [Example 31, 2-[tert-Butyl-(4-fluoro-benzenesulfonyl)-amino]-N-[6-(4-trifluoromethyl-phenyl)-pyrimidin-4-ylmethyl]-acetamide] | 380
7 | CC(C)N([C@@H](C)C(=O)NCc1cc(-c2ccc(C(F)(F)F)cc2)ncn1)S(=O)(=O)c1ccc(F)cc1 [Example 32, (S)-2-[(4-Fluoro-benzenesulfonyl)-isopropyl-amino]-N-[6-(4-trifluoromethyl-phenyl)-pyrimidin-4-ylmethyl]-propionamide] | 190
8 | CC(C)N(CC(=O)NCc1ccc(-c2ccc(C(F)(F)F)cc2)cc1)S(=O)(=O)c1ccc(F)cc1 [Example 33, 2-[(4-Fluoro-benzenesulfonyl)-isopropyl-amino]-N-(4′-trifluoromethyl-biphenyl-4-ylmethyl)-acetamide] | 2210
9 | CC(C)N(CC(=O)NCc1ccc(-c2cccc(C(F)(F)F)c2)cc1)S(=O)(=O)c1ccc(F)cc1 [Example 34, 2-[(4-Fluoro-benzenesulfonyl)-isopropyl-amino]-N-(3′-trifluoromethyl-biphenyl-4-ylmethyl)-acetamide] | 3660
10 | CC(C)N(CC(=O)NCc1ccc(F)c(-c2ccc(C(F)(F)F)cc2)c1)S(=O)(=O)c1ccc(F)cc1 [Example 35, 2-[(4-Fluoro-benzenesulfonyl)-isopropyl-amino]-N-(6-fluoro-4′-trifluoromethyl-biphenyl-3-ylmethyl)-acetamide] | 54
11 | CC(C)N(CC(=O)NCc1cc(F)cc(-c2ccc(C(F)(F)F)cc2)c1)S(=O)(=O)c1ccc(F)cc1 [Example 36, 2-[(4-Fluoro-benzenesulfonyl)-isopropyl-amino]-N-(5-fluoro-4′-trifluoromethyl-biphenyl-3-ylmethyl)-acetamide] | 12
12 | CC(C)N(CC(=O)NCc1cc(-c2ccc(C(F)(F)F)cc2)ccc1F)S(=O)(=O)c1ccc(F)cc1 [Example 37, 2-[(4-Fluoro-benzenesulfonyl)-isopropyl-amino]-N-(4-fluoro-4′-trifluoromethyl-biphenyl-3-ylmethyl)-acetamide] | 14
13 | C[C@H](C(=O)NCc1cc(-c2ccc(C(F)(F)F)cc2)ncn1)N(C)S(=O)(=O)c1ccc(F)cc1 [Example 38, (R)-2-[(4-Fluoro-benzenesulfonyl)-methyl-amino]-N-[6-(4-trifluoromethyl-phenyl)-pyrimidin-4-ylmethyl]-propionamide] | 64

More lines, now with the values ahead:

Row | IC50 [nM] | SMILES
14 | 51 | CC(C)N(CC(=O)NCc1cccc(-c2ccc(C(F)(F)F)cc2)c1)S(=O)(=O)c1ccc(F)cc1 [Example 39, 2-[(4-Fluoro-benzenesulfonyl)-isopropyl-amino]-N-(4′-trifluoromethyl-biphenyl-3-ylmethyl)-acetamide]
15 | 67 | CC(C)N(CC(=O)NCc1cccc(-c2ccc(C(F)(F)F)cn2)c1)S(=O)(=O)c1ccc(F)cc1 [Example 40, 2-[(4-Fluoro-benzenesulfonyl)-isopropyl-amino]-N-[3-(5-trifluoromethyl-pyridin-2-yl)-benzyl]-acetamide]
16 | 290 | CN(CC(=O)NCc1cccc(-c2ccc(C(F)(F)F)cn2)c1)S(=O)(=O)c1ccc(F)cc1 [Example 41, 2-[(4-Fluoro-benzenesulfonyl)-methyl-amino]-N-[3-(5-trifluoromethyl-pyridin-2-yl)-benzyl]-acetamide]
17 | 84 | CCN(CC(=O)NCc1cccc(-c2ccc(C(F)(F)F)cn2)c1)S(=O)(=O)c1ccc(F)cc1 [Example 42, 2-[Ethyl-(4-fluoro-benzenesulfonyl)-amino]-N-[3-(5-trifluoromethyl-pyridin-2-yl)-benzyl]-acetamide]
18 | 380 | COc1cc(CNC(=O)CN(C)S(=O)(=O)c2ccc(F)cc2)cc(-c2ccc(C(F)(F)F)cc2)c1 [Example 43, 2-[(4-Fluoro-benzenesulfonyl)-methyl-amino]-N-(5-methoxy-4′-trifluoromethyl-biphenyl-3-ylmethyl)-acetamide]
19 | 87 | CCN(CC(=O)NCc1cc(OC)cc(-c2ccc(C(F)(F)F)cc2)c1)S(=O)(=O)c1ccc(F)cc1 [Example 44, 2-[Ethyl-(4-fluoro-benzenesulfonyl)-amino]-N-(5-methoxy-4′-trifluoromethyl-biphenyl-3-ylmethyl)-acetamide]
20 | 48 | COc1cc(CNC(=O)CN(C(C)C)S(=O)(=O)c2ccc(F)cc2)cc(-c2ccc(C(F)(F)F)cc2)c1 [Example 45, 2-[(4-Fluoro-benzenesulfonyl)-isopropyl-amino]-N-(5-methoxy-4′-trifluoromethyl-biphenyl-3-ylmethyl)-acetamide]
21 | 130 | CCN(CC(=O)NCc1ccc(OC)c(-c2ccc(C(F)(F)F)cc2)c1)S(=O)(=O)c1ccc(F)cc1 [Example 46, 2-[Ethyl-(4-fluoro-benzenesulfonyl)-amino]-N-(6-methoxy-4′-trifluoromethyl-biphenyl-3-ylmethyl)-acetamide]
22 | 41 | COc1ccc(CNC(=O)CN(C(C)C)S(=O)(=O)c2ccc(F)cc2)cc1-c1ccc(C(F)(F)F)cc1 [Example 47, 2-[(4-Fluoro-benzenesulfonyl)-isopropyl-amino]-N-(6-methoxy-4′-trifluoromethyl-biphenyl-3-ylmethyl)-acetamide]
23 | 34 | CC(C)N(CC(=O)NCc1cccc(-c2ccc(C(F)(F)F)cc2)c1)S(=O)(=O)c1cccc(F)c1 [Example 48, 2-[(3-Fluoro-benzenesulfonyl)-isopropyl-amino]-N-(4′-trifluoromethyl-biphenyl-3-ylmethyl)-acetamide]
24 | 70 | CC(C)N(CC(=O)NCc1cc(-c2ccc(C(F)(F)F)cc2)ncn1)S(=O)(=O)c1cccc(F)c1 [Example 49, 2-[(3-Fluoro-benzenesulfonyl)-isopropyl-amino]-N-[6-(4-trifluoromethyl-phenyl)-pyrimidin-4-ylmethyl]-acetamide]
